Tests used:
IDH1 R132H = IDH1 R132H (Homo sapiens, UniProt O75874, R132H); test: IDH1 R132H enzymatic assay (NADPH depletion coupled to diaphorase/resazurin); assay type: biochemical
IDH1 R132C = IDH1 R132C (Homo sapiens, UniProt O75874, R132C); test: IDH1 R132C enzymatic assay (NADPH depletion coupled to diaphorase/resazurin); assay type: biochemical
Summary of the method: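 NADPH depletion, read via diaphorase/resazurin coupling, after adding substrate at 0.6 mM α-KG and 0.012 mM NADPH. Beforehand, 0.00032 mg/mL enzyme sat with compound 30 min at room temperature in pH 6.5 potassium phosphate buffer with MgCl2, glycerol and BSA.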

[1] = IDH1 R132H enzymatic inhibition, IC50 class
[2] = IDH1 R132C enzymatic inhibition, IC50 class
[3] = enzymatic inhibition, IDH1 R132H
[4] = enzymatic inhibition, IDH1 R132C

Sequence of IDH1 R132C (O75874 whole entry R132C): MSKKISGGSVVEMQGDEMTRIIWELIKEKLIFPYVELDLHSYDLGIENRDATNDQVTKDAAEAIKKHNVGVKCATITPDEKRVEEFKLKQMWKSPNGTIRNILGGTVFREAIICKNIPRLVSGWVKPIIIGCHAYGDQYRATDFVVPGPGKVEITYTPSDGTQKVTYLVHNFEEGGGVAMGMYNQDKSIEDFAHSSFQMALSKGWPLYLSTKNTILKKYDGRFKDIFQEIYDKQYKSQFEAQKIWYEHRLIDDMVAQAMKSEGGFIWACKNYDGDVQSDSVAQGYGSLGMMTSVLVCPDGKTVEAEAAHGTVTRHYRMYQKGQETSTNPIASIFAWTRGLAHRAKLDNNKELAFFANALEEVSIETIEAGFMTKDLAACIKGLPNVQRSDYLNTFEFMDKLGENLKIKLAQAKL
Sequence of IDH1 R132H (O75874 whole entry R132H): as the sequence (O75874 whole entry R132C) above, with C132H counted along it

| SMILES | IC50 (IDH1 R132H; [1]) | IC50 (IDH1 R132C; [2]) | IC50 (IDH1 R132H; [3]) | IC50 (IDH1 R132C; [4]) |
| --- | --- | --- | --- | --- |
| CCc1cccc(CC)c1-n1c(CC(C)C)c(C(=O)N2CCNC(=O)C2)cc(-c2nc(-c3ccc(Cl)cc3)cs2)c1=O [Compound 91] | < 300 nM | < 300 nM | – | – |
| CCc1cccc(CC)c1-n1c(CC(C)C)c(C(=O)N2CCNCC2)cc(-c2nc(-c3ccc(F)cc3)c(C)s2)c1=O [Compound 181] | < 300 nM | < 300 nM | – | – |
| CCc1cccc(CC)c1-n1c(C(C)C)c(C(=O)NCCO)cc(-c2nc(-c3ccc(Cl)cc3)cs2)c1=O [Compound 218] | < 300 nM | 300 to 1000 nM | – | – |
| CCc1cccc(CC)c1-n1c(CC(C)C)c(C(=O)N2CCNCC2)cc(-c2nc(-c3ccc(OCc4ccccc4)cc3)c(C)s2)c1=O [Compound 39] | 5000 to 20000 nM | 5000 to 20000 nM | – | – |
| CCc1cccc(CC)c1-n1c(C)c(C(=O)N2CCCNCC2)cc(-c2nc(-c3ccc(Cl)cc3)cs2)c1=O [Compound 66] | 300 to 1000 nM | 300 to 1000 nM | – | – |
| CC1(C)CC(=O)c2cc(-c3nc(-c4ccc(Cl)cc4)cs3)c(=O)n(-c3ccccc3OCc3ccccc3)c2C1 [Compound 1] | > 20000 nM | 300 to 1000 nM | – | – |
| CC1(C)CC(=O)c2cc(-c3nc(-c4ccc(Cl)cc4)cs3)c(=O)n(-c3ccccc3N3CCOCC3)c2C1 [Compound 248] | 1000 to 5000 nM | 300 to 1000 nM | – | – |
| CCc1cccc(CC)c1-n1c(CC(C)C)c(C(=O)N2CC(O)C2)cc(-c2nc(-c3ccc(Cl)cc3)cs2)c1=O [Compound 63] | 1000 to 5000 nM | 300 to 1000 nM | – | – |
| CCc1cccc(CC)c1-n1c(C(C)C)c(C(=O)N2CCN[C@H](CO)C2)cc(-c2nc(-c3ccc(Cl)cc3)cs2)c1=O [Compound 252] | 300 to 1000 nM | 300 to 1000 nM | – | – |
| CCc1cccc(CC)c1-n1c(C)c(C(=O)NC2CCCC2)cc(-c2nc(-c3ccc(Cl)cc3)cs2)c1=O [Compound 7] | > 20000 nM | 1000 to 5000 nM | – | – |
| CCc1cccc(CC)c1-n1c(CC(C)C)c(C(=O)N2CCNCC2c2ccccc2)cc(-c2nc(-c3ccc(Cl)cc3)cs2)c1=O (centres unmarked) [Compound 145] | 300 to 1000 nM | < 300 nM | – | – |
| COc1ccc([N+](=O)[O-])cc1-n1c2c(cc(-c3nc(-c4ccc(Cl)cc4)cs3)c1=O)C(=O)CC(C)(C)C2 [Compound 128] | 1000 to 5000 nM | 1000 to 5000 nM | – | – |
| CCc1cccc(CC)c1-n1c(CC(C)C)c(C(=O)NC)cc(-c2nc(-c3ccc(Cl)cc3)cs2)c1=O [Compound 33] | 300 to 1000 nM | < 300 nM | – | – |
| CCc1cccc(CC)c1-n1c(CC(C)C)c(C(=O)NC(C)(C)CO)cc(-c2nc(-c3ccc(Cl)cc3)cs2)c1=O [Compound 54] | 300 to 1000 nM | 300 to 1000 nM | – | – |
| CCc1cccc(CC)c1-n1c(CC(C)C)c(C(=O)N2CCNC(c3ccccc3)C2)cc(-c2nc(-c3ccc(Cl)cc3)cs2)c1=O (centres unmarked) [Compound 202] | 300 to 1000 nM | < 300 nM | – | – |
| CCc1cccc(CC)c1-n1c2c(cc(-c3nc(-c4ccccn4)cs3)c1=O)C(=O)CC(C)(C)C2 [Compound 200] | 5000 to 20000 nM | 1000 to 5000 nM | – | – |
| CCc1cccc(CC)c1-n1c(CC(C)C)c(C(=O)N2CCNCC2)cc(-c2nc(-c3ccc(C(=O)N4CCOCC4)cc3)c(C)s2)c1=O [Compound 87] | 5000 to 20000 nM | 5000 to 20000 nM | – | – |
| CCc1cccc(CC)c1-n1c(C(C)C)c(C(=O)NC2CCNCC2)cc(-c2nc(-c3ccc(Cl)cc3)cs2)c1=O [Compound 35] | 1000 to 5000 nM | 1000 to 5000 nM | – | – |
| CCc1cccc(CC)c1-n1c(CC(C)C)c(C(=O)N2CCNCC2)cc(-c2nc(-c3ccc(CN4CCOCC4)cc3)c(C)s2)c1=O [Compound 238] | 5000 to 20000 nM | 5000 to 20000 nM | – | – |

Continued, values first:

| IC50 (IDH1 R132H; [1]) | IC50 (IDH1 R132C; [2]) | IC50 (IDH1 R132H; [3]) | IC50 (IDH1 R132C; [4]) | SMILES |
| --- | --- | --- | --- | --- |
| < 300 nM | < 300 nM | – | – | CCc1cccc(CC)c1-n1c(CC(C)C)c(C(=O)N2CCNCC2)cc(-c2nc(-c3ccc(Cl)cc3)c(C(=O)OC)s2)c1=O [Compound 387] |
| – | – | < 300 nM | < 300 nM | CCc1cccc(CC)c1-n1c(CC(C)C)c(C(=O)N2CCNCC2)cc(-c2nc(-c3ccc(Cl)nc3)c(C)s2)c1=O [Compound 405] |
| – | – | 5000 to 20000 nM | 5000 to 20000 nM | Cc1ccccc1Oc1nc(C)c(C(=O)N2CCNCC2)cc1-c1nc(-c2ccc(Cl)cc2)cs1 [Compound 462] |
| < 300 nM | 300 to 1000 nM | – | – | CCOc1ccc(Cl)cc1-n1c(C=C(C)C)c(C(=O)N2CCNCC2)cc(-c2nc(-c3ccc(C(F)(F)F)nc3)cs2)c1=O [Compound 626] |
| – | – | 5000 to 20000 nM | 5000 to 20000 nM | CCc1ccc(N2CCN(C)CC2)c(CC)c1-n1c2c(cc(-c3nc(-c4ccc(Cl)cc4)cs3)c1=O)C(=O)CC(C)(C)C2 [Compound 406] |
| 300 to 1000 nM | 300 to 1000 nM | – | – | CCc1cccc(CC)c1-n1c(CC)c(C(=O)NC)cc(-c2nc(-c3ccc(Cl)cc3)cs2)c1=O [Compound 293] |
| – | – | 300 to 1000 nM | 1000 to 5000 nM | CCOc1ncc(F)cc1-n1c(C=C(C)C)c(C(=O)N2CCNCC2)cc(-c2nc(-c3ccc(C(F)F)cn3)cs2)c1=O [Compound 474] |
| < 300 nM | < 300 nM | – | – | CC(C)=Cc1c(C(=O)N2CCNCC2)cc(-c2nc(-c3ccc(Cl)cc3)cs2)c(=O)n1-c1c(Cl)cccc1Cl [Compound 384] |
| – | – | < 300 nM | < 300 nM | CCc1cccc(CC)c1-n1c(CC2CC2)c(C(=O)N2CCNCC2)cc(-c2nc(-c3ccc(Cl)nc3)cs2)c1=O [Compound 492] |
| – | – | < 300 nM | < 300 nM | CCOc1ncc(Cl)cc1-n1c(C=C(C)C)c(C(=O)N2CCNCC2)cc(-c2nc(-c3ccc(Cl)cc3)cs2)c1=O [Compound 575] |
| – | – | < 300 nM | < 300 nM | CCc1cccc(CC)c1-n1c(C=C(C)C)c(C(=O)N2CCN[C@@H](C)C2)cc(-c2nc(-c3ccc(C(F)(F)F)cc3)cs2)c1=O [Compound 425] |
| 300 to 1000 nM | < 300 nM | – | – | CCc1cccc(CC)c1-n1c(C=C(C)C)c(C(=O)N2CC3(CCNC3)C2)cc(-c2nc(-c3ccc(Cl)cc3)cs2)c1=O [Compound 344] |
| – | – | < 300 nM | < 300 nM | CCc1cccc(CC)c1-n1c(C=C(C)C)c(C(=O)N2CCNC(C(C)C)C2)cc(-c2nc(-c3ccc(Cl)cc3)cs2)c1=O (centres unmarked) [Compound 489] |
| – | – | 300 to 1000 nM | < 300 nM | CCc1cccc(CC)c1-n1c(C=C(C)C)c(C(=O)N2CCC3(CNC3)C2)cc(-c2nc(-c3ccc(Cl)cc3)cs2)c1=O [Compound 519] |
| 1000 to 5000 nM | 300 to 1000 nM | – | – | CCc1cccc(CC)c1-n1c(C)c(C(=O)NCCCNC)cc(-c2nc(-c3ccc(Cl)cc3)cs2)c1=O [Compound 304] |
| – | – | > 20000 nM | > 20000 nM | CCc1cccc(CC)c1-n1c(CC(C)C)c(C(=O)N2CCNCC2)cc(-c2ccn(Cc3ccc(Cl)cc3)n2)c1=O [Compound 487] |
| – | – | < 300 nM | < 300 nM | C#Cc1ccccc1-n1c(C=C(C)C)c(C(=O)N2CCNCC2)cc(-c2nc(-c3ccc(Cl)cc3)cs2)c1=O [Compound 558] |
| 1000 to 5000 nM | 1000 to 5000 nM | – | – | COc1ccc(F)cc1-n1c2c(cc(-c3nc(-c4ccc(Cl)cc4)cs3)c1=O)C(=O)CCC2 [Compound 318] |
| – | – | 1000 to 5000 nM | 300 to 1000 nM | CCc1cccc(CC)c1-n1c(CC2CCCCO2)c(C(=O)N2CCNCC2)cc(-c2nc(-c3ccc(Cl)cc3)cs2)c1=O (centres unmarked) [Compound 455] |
| 1000 to 5000 nM | 1000 to 5000 nM | – | – | CCc1cccc(CC)c1-n1c(C)c(C(=O)NC2CC2)cc(-c2nc(-c3ccc(Cl)cc3)cs2)c1=O [Compound 265] |
| – | – | 1000 to 5000 nM | 1000 to 5000 nM | CCc1cccc(CC)c1-n1c(CC(C)C)c(C(=O)N2CCNCC2)cc(-c2nc(-c3ccc(Cl)cc3C)c(C)s2)c1=O [Compound 540] |
| < 300 nM | < 300 nM | – | – | CCOc1ccc(C)cc1-n1c(C=C(C)C)c(C(=O)N2CCNCC2)cc(-c2nc(-c3ccc(C(F)F)cc3)cs2)c1=O [Compound 386] |
| – | – | < 300 nM | < 300 nM | CCOc1ccc(C)cc1-n1c(C=C(C)C)c(C(=O)N2CCNCC2)cc(-c2nc(-c3ccc(Cl)cc3)cs2)c1=O [Compound 528] |
| < 300 nM | < 300 nM | – | – | CCc1cccc(CC)c1-n1c(C=C(C)C)c(C(=O)N2CCN[C@@H](C(=O)O)C2)cc(-c2nc(-c3ccc(C(F)(F)F)cc3)cs2)c1=O [Compound 641] |
| – | – | < 300 nM | < 300 nM | CCc1cccc(CC)c1-n1c(C=C(C)C)c(C(=O)N2CCNCC2)cc(-c2nc(-c3ccc(OC4CC4)cc3)cs2)c1=O [Compound 605] |
| < 300 nM | < 300 nM | – | – | CCc1cccc(CC)c1-n1c(C=C(C)C)c(C(=O)N2CCNCC2)cc(-c2nc(-c3ccc(C4CC4)cc3)cs2)c1=O [Compound 620] |
| – | – | 1000 to 5000 nM | 1000 to 5000 nM | COc1cccc(OC)c1-n1c2c(cc(-c3nc(-c4ccc(Cl)cc4)cs3)c1=O)C(=O)CCC2 [Compound 414] |
